Test results reported in patent US9708314B2, “Heterocyclic amide compound” (NISSAN CHEMICAL INDUSTRIES, LTD., priority 2013, dated 2017).

Legend:
Type in all cases: in vivo
[1] = tested on: directly sowed Oryza sativa; experiment: Test Example 3: effect on crop by application to foliage (Wagner pot, water depth 0.1-0.5 cm); details: Nineteenth Table; application to foliage; application herbicide amount 320 g/ha
Outline: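 Foliar spray, 14-day-old plants, emulsion diluted to target g/ha; rated 3 wk post-application, 0–5 scale (0 ≤5%, 5 ≥90% herbicidal ratio). Greenhouse 25–30 °C, alluvial soil.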

Abutilon theophrasti = experiment: Test Example 4: herbicidal effect by application to foliage (diluvial soil, plastic box); details: Application herbicide amount 320 g/ha
Outline: (§1)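 Read-out is a 0–5 visual grade of herbicidal ratio (5: ≥90%, almost withered; 0: ≤5%) taken three weeks after treatment. Compound was applied as a diluted emulsion to stem and leaf parts of 14-day greenhouse-grown plants (25° C. to 30° C.) at rates expressed as g/ha.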

Alopecurus myosuroides = experiment: as above; details: Application herbicide amount 320 g/ha
Outline: as §1

Apera spica-venti. = experiment: as above; details: Application herbicide amount 320 g/ha
Outline: as §1

Avena fatua = experiment: as above; details: Application herbicide amount 320 g/ha
Outline: as §1

Digitaria ciliaris = experiment: as above; details: Application herbicide amount 320 g/ha
Outline: as §1

Galium spurium = experiment: as above; details: Application herbicide amount 320 g/ha
Outline: as §1

Lolium multiflorum Lam. = experiment: as above; details: Application herbicide amount 320 g/ha
Outline: as §1

Setaria viridis = experiment: as above; details: Application herbicide amount 320 g/ha
Outline: as §1

Veronica persica = experiment: as above; details: Application herbicide amount 320 g/ha
Outline: as §1

`Cc1nnc(NC(=O)c2ccc(C(F)(F)F)n3c(-c4ccc(Cl)nc4)nnc23)o1` [1-054] was tested, and the “b (effect on crop grade)” value [1] was 3 (Herbicidal ratio of 40% or more and less than 70%), the M (Abutilon theophrasti) was 5 (Herbicidal ratio of 90% or more (almost completely withered)) and the J (Alopecurus myosuroides) was 3 (Herbicidal ratio of 40% or more and less than 70%). The L (Apera spica-venti.) was 3 (Herbicidal ratio of 40% or more and less than 70%), the I (Avena fatua) was 3 (Herbicidal ratio of 40% or more and less than 70%) and the F (Digitaria ciliaris) was 5 (Herbicidal ratio of 90% or more (almost completely withered)). The Q (Galium spurium) was 4 (Herbicidal ratio of 70% or more and less than 90%), the K (Lolium multiflorum Lam.) was 3 (Herbicidal ratio of 40% or more and less than 70%) and the G (Setaria viridis) was 4 (Herbicidal ratio of 70% or more and less than 90%). The R (Veronica persica) was 5 (Herbicidal ratio of 90% or more (almost completely withered)).

For `Cc1nnc(NC(=O)c2ccc(C(F)(F)F)n3c(-c4cccc(Cl)n4)nnc23)o1` [1-055], the “b (effect on crop grade)” value [1] was 2 (Herbicidal ratio of 20% or more and less than 40%), the M (Abutilon theophrasti) was 5 (Herbicidal ratio of 90% or more (almost completely withered)) and the J (Alopecurus myosuroides) was 3 (Herbicidal ratio of 40% or more and less than 70%). The L (Apera spica-venti.) was 3 (Herbicidal ratio of 40% or more and less than 70%), the I (Avena fatua) was 1 (Herbicidal ratio of 5% or more and less than 20%) and the F (Digitaria ciliaris) was 4 (Herbicidal ratio of 70% or more and less than 90%). For the same molecule, the Q (Galium spurium) was 2 (Herbicidal ratio of 20% or more and less than 40%), the K (Lolium multiflorum Lam.) was 2 (Herbicidal ratio of 20% or more and less than 40%) and the G (Setaria viridis) was 3 (Herbicidal ratio of 40% or more and less than 70%). The R (Veronica persica) was 4 (Herbicidal ratio of 70% or more and less than 90%).

In the case of `Cc1cc(-c2nnc3c(C(=O)Nc4nnc(C)o4)ccc(C(F)(F)F)n23)n(C)n1` [1-056], the “b (effect on crop grade)” value [1] is reported as 4 (Herbicidal ratio of 70% or more and less than 90%), the M (Abutilon theophrasti) is reported as 5 (Herbicidal ratio of 90% or more (almost completely withered)) and the J (Alopecurus myosuroides) is reported as 2 (Herbicidal ratio of 20% or more and less than 40%). For the same molecule, the L (Apera spica-venti.) was 3 (Herbicidal ratio of 40% or more and less than 70%), the I (Avena fatua) was 3 (Herbicidal ratio of 40% or more and less than 70%) and the F (Digitaria ciliaris) was 5 (Herbicidal ratio of 90% or more (almost completely withered)). For the same molecule, the Q (Galium spurium) was 4 (Herbicidal ratio of 70% or more and less than 90%), the K (Lolium multiflorum Lam.) was 2 (Herbicidal ratio of 20% or more and less than 40%) and the G (Setaria viridis) was 5 (Herbicidal ratio of 90% or more (almost completely withered)). The R (Veronica persica) was 5 (Herbicidal ratio of 90% or more (almost completely withered)).

In the case of `Cc1nnc(NC(=O)c2ccc(C(F)(F)F)n3c(-c4cccs4)nnc23)o1` [1-057], the “b (effect on crop grade)” value [1] is reported as 3 (Herbicidal ratio of 40% or more and less than 70%), the M (Abutilon theophrasti) is reported as 5 (Herbicidal ratio of 90% or more (almost completely withered)) and the J (Alopecurus myosuroides) is reported as 2 (Herbicidal ratio of 20% or more and less than 40%). The L (Apera spica-venti.) was 2 (Herbicidal ratio of 20% or more and less than 40%), the I (Avena fatua) was 3 (Herbicidal ratio of 40% or more and less than 70%) and the F (Digitaria ciliaris) was 4 (Herbicidal ratio of 70% or more and less than 90%). The Q (Galium spurium) was 1 (Herbicidal ratio of 5% or more and less than 20%), the K (Lolium multiflorum Lam.) was 2 (Herbicidal ratio of 20% or more and less than 40%) and the G (Setaria viridis) was 4 (Herbicidal ratio of 70% or more and less than 90%). For the same molecule, the R (Veronica persica) was 5 (Herbicidal ratio of 90% or more (almost completely withered)).

In the case of `COc1ccc(Cc2nnc3c(C(=O)Nc4nnc(C)o4)ccc(C(F)(F)F)n23)cc1` [1-069], the “b (effect on crop grade)” value [1] is reported as 1 (Herbicidal ratio of 5% or more and less than 20%), the M (Abutilon theophrasti) is reported as 3 (Herbicidal ratio of 40% or more and less than 70%) and the J (Alopecurus myosuroides) is reported as 2 (Herbicidal ratio of 20% or more and less than 40%). For the same molecule, the L (Apera spica-venti.) was 4 (Herbicidal ratio of 70% or more and less than 90%), the I (Avena fatua) was 2 (Herbicidal ratio of 20% or more and less than 40%) and the F (Digitaria ciliaris) was 5 (Herbicidal ratio of 90% or more (almost completely withered)). The Q (Galium spurium) was 3 (Herbicidal ratio of 40% or more and less than 70%), the K (Lolium multiflorum Lam.) was 2 (Herbicidal ratio of 20% or more and less than 40%) and the G (Setaria viridis) was 5 (Herbicidal ratio of 90% or more (almost completely withered)).

`COc1cc(OC)cc(-c2nnc3c(C(=O)Nc4nnc(C)o4)ccc(C(F)(F)F)n23)c1` [1-070] was tested, and the “b (effect on crop grade)” value [1] was 0 (Herbicidal ratio of 5% or less (almost no effect)), the M (Abutilon theophrasti) was 4 (Herbicidal ratio of 70% or more and less than 90%) and the J (Alopecurus myosuroides) was 0 (Herbicidal ratio of 5% or less (almost no effect)). For the same molecule, the L (Apera spica-venti.) was 0 (Herbicidal ratio of 5% or less (almost no effect)), the I (Avena fatua) was 1 (Herbicidal ratio of 5% or more and less than 20%) and the F (Digitaria ciliaris) was 4 (Herbicidal ratio of 70% or more and less than 90%). The Q (Galium spurium) was 3 (Herbicidal ratio of 40% or more and less than 70%), the K (Lolium multiflorum Lam.) was 0 (Herbicidal ratio of 5% or less (almost no effect)) and the G (Setaria viridis) was 4 (Herbicidal ratio of 70% or more and less than 90%).

In the case of `COCC[S+]([O-])c1nnc2c(C(=O)Nc3nnc(C)o3)ccc(C(F)(F)F)n12` (centres unmarked) [1-073], the “b (effect on crop grade)” value [1] is reported as 4 (Herbicidal ratio of 70% or more and less than 90%), the M (Abutilon theophrasti) is reported as 5 (Herbicidal ratio of 90% or more (almost completely withered)) and the J (Alopecurus myosuroides) is reported as 2 (Herbicidal ratio of 20% or more and less than 40%). For the same molecule, the L (Apera spica-venti.) was 3 (Herbicidal ratio of 40% or more and less than 70%), the I (Avena fatua) was 3 (Herbicidal ratio of 40% or more and less than 70%) and the F (Digitaria ciliaris) was 5 (Herbicidal ratio of 90% or more (almost completely withered)). The Q (Galium spurium) was 2 (Herbicidal ratio of 20% or more and less than 40%), the K (Lolium multiflorum Lam.) was 3 (Herbicidal ratio of 40% or more and less than 70%) and the G (Setaria viridis) was 5 (Herbicidal ratio of 90% or more (almost completely withered)).

In the case of `C=CC[S+]([O-])c1nnc2c(C(=O)Nc3nnc(C)o3)ccc(C(F)(F)F)n12` (centres unmarked) [1-074], the “b (effect on crop grade)” value [1] is reported as 0 (Herbicidal ratio of 5% or less (almost no effect)), the J (Alopecurus myosuroides) is reported as 0 (Herbicidal ratio of 5% or less (almost no effect)) and the L (Apera spica-venti.) is reported as 0 (Herbicidal ratio of 5% or less (almost no effect)). The I (Avena fatua) was 1 (Herbicidal ratio of 5% or more and less than 20%), the F (Digitaria ciliaris) was 4 (Herbicidal ratio of 70% or more and less than 90%) and the Q (Galium spurium) was 3 (Herbicidal ratio of 40% or more and less than 70%). The K (Lolium multiflorum Lam.) was 0 (Herbicidal ratio of 5% or less (almost no effect)), the G (Setaria viridis) was 4 (Herbicidal ratio of 70% or more and less than 90%) and the R (Veronica persica) was 3 (Herbicidal ratio of 40% or more and less than 70%).

With `CSC(C)c1nnc2c(C(=O)Nc3nnc(C)o3)ccc(C(F)(F)F)n12` (centres unmarked) [1-078] the “b (effect on crop grade)” value [1] was 5 (Herbicidal ratio of 90% or more (almost completely withered)), the M (Abutilon theophrasti) was 5 (Herbicidal ratio of 90% or more (almost completely withered)) and the J (Alopecurus myosuroides) was 3 (Herbicidal ratio of 40% or more and less than 70%). For the same molecule, the L (Apera spica-venti.) was 4 (Herbicidal ratio of 70% or more and less than 90%), the I (Avena fatua) was 4 (Herbicidal ratio of 70% or more and less than 90%) and the F (Digitaria ciliaris) was 5 (Herbicidal ratio of 90% or more (almost completely withered)). For the same molecule, the K (Lolium multiflorum Lam.) was 3 (Herbicidal ratio of 40% or more and less than 70%) and the G (Setaria viridis) was 5 (Herbicidal ratio of 90% or more (almost completely withered)).

In the case of `Cc1nnc(NC(=O)c2ccc(C(F)(F)F)n3c(C(C)[S+](C)[O-])nnc23)o1` (centres unmarked) [1-079], the “b (effect on crop grade)” value [1] is reported as 5 (Herbicidal ratio of 90% or more (almost completely withered)), the M (Abutilon theophrasti) is reported as 5 (Herbicidal ratio of 90% or more (almost completely withered)) and the J (Alopecurus myosuroides) is reported as 2 (Herbicidal ratio of 20% or more and less than 40%). For the same molecule, the I (Avena fatua) was 4 (Herbicidal ratio of 70% or more and less than 90%), the F (Digitaria ciliaris) was 5 (Herbicidal ratio of 90% or more (almost completely withered)) and the Q (Galium spurium) was 4 (Herbicidal ratio of 70% or more and less than 90%). The K (Lolium multiflorum Lam.) was 3 (Herbicidal ratio of 40% or more and less than 70%) and the G (Setaria viridis) was 5 (Herbicidal ratio of 90% or more (almost completely withered)).

For `Cc1nnc(NC(=O)c2ccc(C(F)(F)F)n3c(C(C)S(C)(=O)=O)nnc23)o1` (centres unmarked) [1-080], the “b (effect on crop grade)” value [1] was 5 (Herbicidal ratio of 90% or more (almost completely withered)), the M (Abutilon theophrasti) was 5 (Herbicidal ratio of 90% or more (almost completely withered)) and the J (Alopecurus myosuroides) was 5 (Herbicidal ratio of 90% or more (almost completely withered)). The L (Apera spica-venti.) was 5 (Herbicidal ratio of 90% or more (almost completely withered)), the I (Avena fatua) was 4 (Herbicidal ratio of 70% or more and less than 90%) and the F (Digitaria ciliaris) was 5 (Herbicidal ratio of 90% or more (almost completely withered)). The Q (Galium spurium) was 5 (Herbicidal ratio of 90% or more (almost completely withered)), the K (Lolium multiflorum Lam.) was 4 (Herbicidal ratio of 70% or more and less than 90%) and the G (Setaria viridis) was 5 (Herbicidal ratio of 90% or more (almost completely withered)).

For `Cc1nnc(NC(=O)c2ccc(C(F)(F)F)n3c(CCS(C)(=O)=O)nnc23)o1` [1-085], the “b (effect on crop grade)” value [1] was 3 (Herbicidal ratio of 40% or more and less than 70%), the M (Abutilon theophrasti) was 5 (Herbicidal ratio of 90% or more (almost completely withered)) and the J (Alopecurus myosuroides) was 3 (Herbicidal ratio of 40% or more and less than 70%). For the same molecule, the L (Apera spica-venti.) was 3 (Herbicidal ratio of 40% or more and less than 70%), the F (Digitaria ciliaris) was 5 (Herbicidal ratio of 90% or more (almost completely withered)) and the Q (Galium spurium) was 4 (Herbicidal ratio of 70% or more and less than 90%). For the same molecule, the K (Lolium multiflorum Lam.) was 3 (Herbicidal ratio of 40% or more and less than 70%), the G (Setaria viridis) was 5 (Herbicidal ratio of 90% or more (almost completely withered)) and the R (Veronica persica) was 5 (Herbicidal ratio of 90% or more (almost completely withered)).
